Test results as given in patent US20250339569A1, “CARBONIC ANHYDRASE IX LIGANDS” (priority 2021, published 2025).
Where two headings read alike, the source gives them in different places. Starred links: 1 amine or outer side, 2 acyl side, 3 side chain; linkers in the order of their positions; H or OH if unused. Positions of bridges follow the written chain, without caps; N, C: chain ends. Non-standard residues stand in square brackets, D forms with d. Residues, ends and D or L forms follow the SMILES beside them. *: point of attachment. NH(CH2)3NH(O2Oc(DOTA)) = O=C(O)CN1CCN(CC(=O)O)CCN(CC(=O)NCCOCCOCC(=O)NCCCN*)CCN(CC(=O)O)CC1; NH(CH2)3NHDOTA = O=C(O)CN1CCN(CC(=O)O)CCN(CC(=O)NCCCN*)CCN(CC(=O)O)CC1; X3 = O=C(O)CN1CCN(CC(=O)O)CCN(CC(=O)NCCCOCCOCCOCCCN*)CCN(CC(=O)O)CC1; DOTA = O=C(O)CN1CCN(CC(=O)O)CCN(CC(=O)*)CCN(CC(=O)O)CC1; mXylylene = c1cc(C[*:1])cc(C[*:2])c1; Orn(Me2) = CN(C)CCC[C@H](N)C(=O)O; X2 = O=C(CN1CCC(N[*:1])CC1)[*:2]; Suc = O=C(CCC(=O)[*:2])[*:1]; Propanoyl(3-OH) = O=C(CCO)*; Isovaleryl = CC(C)CC(=O)*; hSer = N[C@@H](CCO)C(=O)O; Nle = CCCC[C@H](N)C(=O)O

Legend:
[1] = Plasma stability assay, mouse plasma; conditions: mouse plasma, 37°C
[2] = molecular target: T1, CAIX-expressing human HT-29 colorectal cancer cells (Homo sapiens, UniProt Q16790); test: FACS binding assay (IC50 determination, competition with tracer 3BP-2776 or 3BP-4149); conditions: 4° C., 1 hour, read-out: pIC50 category (activity) (converted)
T1 construct: CAIX-expressing human HT-29 colorectal cancer cells; host or cells: HT-29 human colorectal cancer cells
Method in brief: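 HT-29 cells in FACS buffer (PBS, 1% FCS) at 500.000 cells/ml were exposed to compounds competing with a labelled tracer, with biotinylated compounds detected by 1 μg/mL APC-streptavidin for 30 min on ice. APC/Cy5 median fluorescence was read by flow cytometry and IC50 derived by 4PL fit.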

[3] = molecular target: T2, human carbonic anhydrase IX (hCAIX-Fc) (Homo sapiens, UniProt Q16790); test: Surface plasmon resonance assay with hCAIX-Fc; assay type: binding; conditions: 25° C.; for t1/2 category (activity): SPR dissociation half-life, hCAIX-Fc; for Kd: SPR, hCAIX-Fc captured, read-out: pKD category (activity) (converted)
T2 construct: purchased SinoBliological (Sino Biological) 10107-H02H

[4] = FACS competition on HT-29 cells, Tracer ID 3BP-2776 (10 nM, biotin-labeled)
[5] = FACS binding assay, HT-29 cells, competition with tracer 3BP-2776 (10 nM, biotin-labeled)

% intact compound remaining (incubation time) ([1]; 6 h)	IC50 [2, 4]	t1/2 category (activity) [3]	Kd [3]	% intact compound remaining (incubation time) ([1]; 24 h)	IC50 [2, 5]	SMILES
–	< 10 nM	B (t1/2 between 5.1 and 15.0 minutes)	< 10 nM	>95%	–	CC(=O)N[C@H](C(=O)N[C@@H](Cc1ccccc1)C(=O)N[C@H]1CSCc2cccc(c2)CSC[C@@H](C(N)=O)NC(=O)[C@H](CCC(=O)NCCCNC(=O)CN2CCN(CC(=O)O)CCN(CC(=O)O)CCN(CC(=O)O)CC2)NC(=O)[C@H](Cc2c[nH]c3ccccc23)NC(=O)[C@H]([C@@H](C)O)NC(=O)[C@H](CC(C)C)NC(=O)[C@H](Cc2c[nH]c3ccccc23)NC(=O)[C@H](CC(=O)O)NC(=O)[C@H]2CCCN2C(=O)[C@H](CCC(=O)O)NC1=O)C(C)C [3BP-3874] (Ac-VFCE[dP]DWLTWE(NH(CH2)3NHDOTA)C-NH2; linker 3-12 via mXylylene)
–	< 10 nM	C (t1/2 between 2.1 and 5.0 minutes)	< 10 nM	>95%	–	CC(C)C[C@@H]1NC(=O)[C@H](Cc2c[nH]c3ccccc23)NC(=O)[C@@H]2CCCCNC(=O)CC[C@H](NC1=O)C(=O)N[C@@H](Cc1c[nH]c3ccccc13)C(=O)N[C@@H](CO)C(=O)N[C@H](C(N)=O)CSCc1cccc(c1)CSC[C@H](NC(=O)[C@H](Cc1ccc(O)cc1)NC(=O)CN1CCN(CC(=O)O)CCN(CC(=O)O)CCN(CC(=O)O)CC1)C(=O)N[C@@H](CCC(=O)O)C(=O)N1CCC[C@@H]1C(=O)N2 [3BP-3934, DOTA-Tyr-[Cys(3MeBn)-Glu-pro-{Lys-Trp-Leu-Glu}-Trp-Ser-Cys]-NH2] ({DOTA}-YCE[dP]KWLEWSC-NH2; linker 2-11 via mXylylene; lactam 5-8)
–	–	B (t1/2 between 5.1 and 15.0 minutes)	< 10 nM	93%	< 10 nM	CC(C)C[C@@H]1NC(=O)[C@H](Cc2c[nH]c3ccccc23)NC(=O)[C@H](CC(=O)O)NC(=O)[C@H]2CCCN2C(=O)[C@H](CCCN(C)C)NC(=O)[C@@H](NC(=O)[C@H](Cc2ccc(O)cc2)NC(=O)[C@@H](NC(=O)CN2CCC(NC(=O)CN3CCN(CC(=O)O)CCN(CC(=O)O)CCN(CC(=O)O)CC3)CC2)C(C)C)CSCc2cccc(c2)CSC[C@@H](C(N)=O)NC(=O)[C@H](CO)NC(=O)[C@H](Cc2c[nH]c3ccccc23)NC(=O)[C@H]([C@@H](C)O)NC1=O [3BP-4096] ({DOTA}-[X2]VYC[Orn(Me2)][dP]DWLTWSC-NH2; linker 4-13 via mXylylene)
–	–	B (t1/2 between 5.1 and 15.0 minutes)	< 10 nM	93%	< 10 nM	CC(C)C[C@@H]1NC(=O)[C@H](Cc2c[nH]c3ccccc23)NC(=O)[C@H](CC(=O)O)NC(=O)[C@H]2CCCN2C(=O)[C@H](CCO)NC(=O)[C@@H](NC(=O)[C@H](Cc2ccc(O)cc2)NC(=O)[C@@H](NC(=O)CN2CCC(NC(=O)CN3CCN(CC(=O)O)CCN(CC(=O)O)CCN(CC(=O)O)CC3)CC2)C(C)C)CSCc2cccc(c2)CSC[C@@H](C(N)=O)NC(=O)[C@H](CO)NC(=O)[C@H](Cc2c[nH]c3ccccc23)NC(=O)[C@H]([C@@H](C)O)NC1=O [3BP-4101] ({DOTA}-[X2]VYC[hSer][dP]DWLTWSC-NH2; linker 4-13 via mXylylene)

More lines, now with the values behind:

SMILES	% intact compound remaining (incubation time) ([1]; 6 h)	IC50 [2, 4]	t1/2 category (activity) [3]	Kd [3]	% intact compound remaining (incubation time) ([1]; 24 h)	IC50 [2, 5]
CC(C)C[C@@H]1NC(=O)[C@H](Cc2c[nH]c3ccccc23)NC(=O)[C@H](CC(=O)O)NC(=O)[C@H]2CCCN2C(=O)[C@H](CCC(=O)O)NC(=O)[C@@H](NC(=O)[C@H](Cc2ccc(O)cc2)NC(=O)[C@@H](NC(=O)CN2CCC(NC(=O)CN3CCN(CC(=O)O)CCN(CC(=O)O)CCN(CC(=O)O)CC3)CC2)C(C)C)CSCc2cccc(c2)CSC[C@@H](C(N)=O)NC(=O)[C@H](CCCNC(=N)N)NC(=O)[C@H](Cc2c[nH]c3ccccc23)NC(=O)[C@H]([C@@H](C)O)NC1=O [3BP-3599] ({DOTA}-[X2]VYCE[dP]DWLTWRC-NH2; linker 4-13 via mXylylene)	52%	< 10 nM	B (t1/2 between 5.1 and 15.0 minutes)	< 10 nM	–	–
CC(=O)N[C@@H](CO)C(=O)N[C@@H](Cc1ccc(O)cc1)C(=O)N[C@H]1CSCc2cccc(c2)CSC[C@@H](C(N)=O)NC(=O)[C@H](CCC(=O)NCCCNC(=O)COCCOCCNC(=O)CN2CCN(CC(=O)O)CCN(CC(=O)O)CCN(CC(=O)O)CC2)NC(=O)[C@H](Cc2c[nH]c3ccccc23)NC(=O)[C@H]([C@@H](C)O)NC(=O)[C@H](CC(C)C)NC(=O)[C@H](Cc2c[nH]c3ccccc23)NC(=O)[C@H](CC(=O)O)NC(=O)[C@H]2CCCN2C(=O)[C@H](CCC(=O)O)NC1=O [3BP-3732] (Ac-SYCE[dP]DWLTWE(NH(CH2)3NH(O2Oc(DOTA)))C-NH2; linker 3-12 via mXylylene)	–	< 10 nM	B (t1/2 between 5.1 and 15.0 minutes)	< 10 nM	>95%	–
CC(=O)N[C@H](C(=O)N[C@@H](CCCNC(=N)N)C(=O)N[C@H]1CSCc2cccc(c2)CSC[C@@H](C(N)=O)NC(=O)[C@H](CCC(=O)NCCCNC(=O)COCCOCCNC(=O)CN2CCN(CC(=O)O)CCN(CC(=O)O)CCN(CC(=O)O)CC2)NC(=O)[C@H](Cc2c[nH]c3ccccc23)NC(=O)[C@H]([C@@H](C)O)NC(=O)[C@H](CC(C)C)NC(=O)[C@H](Cc2c[nH]c3ccccc23)NC(=O)[C@H](CC(=O)O)NC(=O)[C@H]2CCCN2C(=O)[C@H](CCC(=O)O)NC1=O)C(C)C [3BP-3734] (Ac-VRCE[dP]DWLTWE(NH(CH2)3NH(O2Oc(DOTA)))C-NH2; linker 3-12 via mXylylene)	–	< 10 nM	B (t1/2 between 5.1 and 15.0 minutes)	< 10 nM	79%	–
CC(C)CC(=O)N[C@@H](Cc1ccc(O)cc1)C(=O)N[C@H]1CSCc2cccc(c2)CSC[C@@H](C(N)=O)NC(=O)[C@H](CCC(=O)NCCCNC(=O)COCCOCCNC(=O)CN2CCN(CC(=O)O)CCN(CC(=O)O)CCN(CC(=O)O)CC2)NC(=O)[C@H](Cc2c[nH]c3ccccc23)NC(=O)[C@H]([C@@H](C)O)NC(=O)[C@H](CC(C)C)NC(=O)[C@H](Cc2c[nH]c3ccccc23)NC(=O)[C@H](CC(=O)O)NC(=O)[C@H]2CCCN2C(=O)[C@H](CCC(=O)O)NC1=O [3BP-3740] (Isovaleryl-YCE[dP]DWLTWE(NH(CH2)3NH(O2Oc(DOTA)))C-NH2; linker 2-11 via mXylylene)	–	< 10 nM	B (t1/2 between 5.1 and 15.0 minutes)	< 10 nM	>95%	–
CC(=O)N[C@@H](CCCCNC(=O)CN1CCN(CC(=O)O)CCN(CC(=O)O)CCN(CC(=O)O)CC1)C(=O)N[C@H](C(=O)N[C@@H](Cc1ccc(O)cc1)C(=O)N[C@H]1CSCc2cccc(c2)CSC[C@@H](C(N)=O)NC(=O)[C@H](CO)NC(=O)[C@H](Cc2c[nH]c3ccccc23)NC(=O)[C@H]([C@@H](C)O)NC(=O)[C@H](CC(C)C)NC(=O)[C@H](Cc2c[nH]c3ccccc23)NC(=O)[C@H](CC(=O)O)NC(=O)[C@H]2CCCN2C(=O)[C@H](CCC(=O)O)NC1=O)C(C)C [3BP-3840] (Ac-K(DOTA)VYCE[dP]DWLTWSC-NH2; linker 4-13 via mXylylene)	–	< 10 nM	B (t1/2 between 5.1 and 15.0 minutes)	< 10 nM	>95%	–
CC(C)C[C@@H]1NC(=O)[C@H](Cc2c[nH]c3ccccc23)NC(=O)[C@H](CC(=O)O)NC(=O)[C@H]2CCCN2C(=O)[C@H](CCC(=O)O)NC(=O)[C@@H](NC(=O)[C@H](Cc2ccc(O)cc2)NC(=O)CCO)CSCc2cccc(c2)CSC[C@@H](C(N)=O)NC(=O)[C@H](CCC(=O)NCCCNC(=O)CN2CCN(CC(=O)O)CCN(CC(=O)O)CCN(CC(=O)O)CC2)NC(=O)[C@H](Cc2c[nH]c3ccccc23)NC(=O)[C@H]([C@@H](C)O)NC1=O [3BP-3842] ({Propanoyl(3-OH)}-YCE[dP]DWLTWE(NH(CH2)3NHDOTA)C-NH2; linker 2-11 via mXylylene)	–	< 10 nM	C (t1/2 between 2.1 and 5.0 minutes)	< 10 nM	>95%	–
CC(C)C[C@@H]1NC(=O)[C@H](Cc2c[nH]c3ccccc23)NC(=O)[C@H](CC(=O)O)NC(=O)[C@H]2CCCN2C(=O)[C@H](CCC(=O)O)NC(=O)[C@@H](NC(=O)[C@H](Cc2ccc(O)cc2)NC(=O)CN2CCN(CC(=O)O)CCN(CC(=O)O)CCN(CC(=O)O)CC2)CSCc2cccc(c2)CSC[C@@H](C(N)=O)NC(=O)[C@H](CO)NC(=O)[C@H](Cc2c[nH]c3ccccc23)NC(=O)[C@H]([C@@H](C)O)NC1=O [3BP-3859] ({DOTA}-YCE[dP]DWLTWSC-NH2; linker 2-11 via mXylylene)	–	< 10 nM	B (t1/2 between 5.1 and 15.0 minutes)	–	>95%	–
CCCC[C@H](NC(=O)CCC(=O)NCCCOCCOCCOCCCNC(=O)CN1CCN(CC(=O)O)CCN(CC(=O)O)CCN(CC(=O)O)CC1)C(=O)N[C@@H](Cc1ccc(O)cc1)C(=O)N[C@H]1CSCc2cccc(c2)CSC[C@@H](C(N)=O)NC(=O)[C@H](CO)NC(=O)[C@H](Cc2c[nH]c3ccccc23)NC(=O)[C@H]([C@@H](C)O)NC(=O)[C@H](CC(C)C)NC(=O)[C@H](Cc2c[nH]c3ccccc23)NC(=O)[C@H](CC(=O)O)NC(=O)[C@H]2CCCN2C(=O)[C@H](CCC(=O)O)NC1=O [3BP-3870] ({X3-Suc}-[Nle]YCE[dP]DWLTWSC-NH2; linker 3-12 via mXylylene)	–	< 10 nM	B (t1/2 between 5.1 and 15.0 minutes)	< 10 nM	92%	–
